According to patent publication US9273057B2 (Bristol-Myers Squibb Company, priority 2012, dated 2016):

The compounds below were run against CK2A1 (CK2α/β) (Homo sapiens, UniProt P68400) (assay: CK2 kinase assay, CK2A1 (CK2α/β)). Conditions: Table A; read-out: CK2A1 (CK2α/β) (IC50).
Format: biochemical

Sequence of CK2A1 (CK2α/β) (P68400 whole entry, species assumed): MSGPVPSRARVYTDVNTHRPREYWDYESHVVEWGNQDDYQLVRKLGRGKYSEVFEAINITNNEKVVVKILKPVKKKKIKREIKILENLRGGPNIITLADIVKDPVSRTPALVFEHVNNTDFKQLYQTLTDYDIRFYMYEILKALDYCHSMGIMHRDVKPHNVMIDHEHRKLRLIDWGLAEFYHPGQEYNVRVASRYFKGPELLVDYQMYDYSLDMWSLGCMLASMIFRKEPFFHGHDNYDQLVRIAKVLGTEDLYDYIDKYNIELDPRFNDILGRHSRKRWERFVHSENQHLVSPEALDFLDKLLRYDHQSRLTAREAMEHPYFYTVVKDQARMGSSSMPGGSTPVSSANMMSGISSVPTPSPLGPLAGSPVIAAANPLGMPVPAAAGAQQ
Sequence of CK2A1 (CK2α/β) (P67870 whole entry partner, species assumed): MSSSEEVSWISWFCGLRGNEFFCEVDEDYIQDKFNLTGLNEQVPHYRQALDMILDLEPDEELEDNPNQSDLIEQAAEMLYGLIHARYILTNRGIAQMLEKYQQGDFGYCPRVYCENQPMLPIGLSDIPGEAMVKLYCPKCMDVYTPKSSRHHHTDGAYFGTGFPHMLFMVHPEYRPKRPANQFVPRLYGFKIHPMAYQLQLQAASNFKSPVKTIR

| Structure (SMILES) | IC50 [pM] |
| --- | --- |
| N#Cc1cc(Nc2nc(NC3CC3)c3ncc(C#N)n3n2)c(Cl)c(N2CCC(NC3CCOCC3)CC2)c1 [Example 125, 2-((2-chloro-5-cyano-3-(4-(tetrahydro-2H-pyran-4-ylamino)-1-piperidinyl)phenyl)amino)-4-(cyclopropylamino)imidazo [2,1-f][1,2,4]triazine-7-carbonitrile] | 750 |
| N#Cc1cc(Nc2nc(NC3CC3)c3ncc(C#N)n3n2)c(Cl)c(N2CCC(NC3CS(=O)(=O)C3)CC2)c1 [Example 129, 2-((2-chloro-5-cyano-3-(4-((1,1-dioxido-3-thietanyl)amino)-1-piperidinyl)phenyl)amino)-4-(cyclopropylamino)imidazo [2,1-f][1,2,4]triazine-7-carbonitrile] | 5130 |
| N#Cc1cc(Nc2nc(NC3CC3)c3ncc(C#N)n3n2)c(Cl)c(N2CCC(NCC3CC3)CC2)c1 [Example 136, 2-((2-chloro-5-cyano-3-(4-((cyclopropylmethyl)amino)-1-piperidinyl)phenyl)amino)-4-(cyclopropylamino)imidazo [2,1-f][1,2,4]triazine-7-carbonitrile] | 22000 |
| CC(C)(O)[C@H](F)CNC1CCN(c2cc(C#N)cc(Nc3nc(NC4CC4)c4ncc(C#N)n4n3)c2Cl)CC1 [Example 137, 2-((2-chloro-5-cyano-3-(4-(((2R)-2-fluoro-3-hydroxy-3-methylbutyl)amino)-1-piperidinyI)phenyl)amino)-4-(cyclopropylamino)imidazo [2,1-f][1,2,4]triazine-7-carbonitrile] | 3060 |
| Cc1cc(CNC2CCN(c3cc(C#N)cc(Nc4nc(NC5CC5)c5ncc(C#N)n5n4)c3Cl)CC2)on1 [Example 140, 2-(2-chloro-5-cyano-3-(4-((3-methylisoxazol-5-yl)methylamino)piperidin-1-yl)phenylamino)-4-(cyclopropylamino)imidazo [1,2-f][1,2,4]triazine-7-carbonitrile] | 2680 |
| N#CCNC1CCN(c2cc(C#N)cc(Nc3nc(NC4CC4)c4ncc(C#N)n4n3)c2Cl)CC1 [Example 141, 2-((2-chloro-5-cyano-3-(4-((cyanomethyl)amino)-1-piperidinyl)phenyl)amino)-4-(cyclopropylamino)imidazo [2,1-f][1,2,4]triazine-7-carbonitrile] | 670 |
| CC(C)(O)CNC1CCN(c2cc(C#N)cc(Nc3nc(NC4CC4)c4ncc(C#N)n4n3)c2Cl)CC1 [Example 143, 2-((2-chloro-5-cyano-3-(4-((2-hydroxy-2-methylpropyl)amino)-1-piperidinyl)phenyl)amino)-4-(cyclopropylamino)imidazo [2,1-f][1,2,4]triazine-7-carbonitrile] | 780 |
| COC(=O)NC1CCN(c2cc(C#N)cc(Nc3nc(NC4CC4)c4ncc(C#N)n4n3)c2Cl)CC1 [Example 146, methyl (1-(2-chloro-5-cyano-3-((7-cyano-4-(cyclopropylamino)imidazo [2,1-f][1,2,4]triazin-2-yl)amino)phenyl)-4-piperidinyl)carbamate] | 1190 |
| N#Cc1cc(Nc2nc(NC3CC3)c3ncc(C#N)n3n2)c(Cl)c(N2CCC(N3CC(F)(F)C3)CC2)c1 [Example 147, 2-((2-chloro-5-cyano-3-(4-(3,3-difluoro-1-azetidinyl)-1-piperidinyl)phenyl)amino)-4-(cyclopropylamino)imidazo [2,1-f][1,2,4]triazine-7-carbonitrile] | 1170 |
| CN1CCN(C2CN(c3cc(C#N)cc(Nc4nc(NC5CC5)c5ncc(C#N)n5n4)c3Cl)C2)CC1 [Example 151, 2-((2-chloro-5-cyano-3-(3-(4-methylpiperazin-1-yl)azetidin-1-yl)phenyl)amino)-4-(cyclopropylamino)imidazo[2,1-f][1,2,4]triazine-7-carbonitrile] | 590 |
| CN1CCN(C2CN(c3cc(C#N)cc(Nc4nc(NC5CC5)c5ncc(C#N)n5n4)c3Cl)C2)CC1=O [Example 156, 2-((2-chloro-5-cyano-3-(3-(4-methyl-3-oxo-1-piperazinyl)-1-azetidinyl)phenyl)amino)-4-(cyclopropylamino)imidazo [2,1-f][1,2,4]triazine-7-carbonitrile] | 360 |
| CC(C)(O)C1CCN(C2CN(c3cc(C#N)cc(Nc4nc(NC5CC5)c5ncc(C#N)n5n4)c3Cl)C2)CC1 [Example 158] | 650 |
| COC1CCN(C2CN(c3cc(C#N)cc(Nc4nc(NC5CC5)c5ncc(C#N)n5n4)c3Cl)C2)CC1 [Example 164] | 570 |
| N#Cc1cnc2c(NC3CC3)nc(Nc3cc(C(N)=O)cc(N4CC(NC5COC5)C4)c3Cl)nn12 [Example 166, 4-chloro-3-((7-cyano-4-(cyclopropylamino)imidazo [2,1-f][1,2,4]triazin-2-yl)amino)-5-(3-(3-oxetanylamino)-1-azetidinyl)benzamide] | 440 |
| N#Cc1cc(Nc2nc(NC3CC3)c3ncc(C#N)n3n2)c(Cl)c(N2CC[C@@H](NC(=O)OCCN3CCOCC3)[C@H](O)C2)c1 [Example 178, 2-morpholinoethyl ((3R,4R)-1-(2-chloro-5-cyano-3-((7-cyano-4-(cyclopropylamino)imidazo[2,1-f][1,2,4]triazin-2-yl)amino)phenyl)-3-hydroxypiperidin-4-yl)carbamate] | 770 |
| COC(=O)N[C@H]1CCN(c2cc(C#N)cc(Nc3nc(NC4CC4)c4ncc(C#N)n4n3)c2Cl)C[C@@H]1OC(=O)CN [Example 193, (3S,4S)-1-(2-chloro-5-cyano-3-((7-cyano-4-(cyclopropylamino)imidazo[2,1-f][1,2,4]triazin-2-yl)amino)phenyl)-4-((methoxycarbonyl)amino)-3-piperidinyl glycinate] | 6000 |

Continued by falling IC50, values first:

| IC50 [pM] | Structure (SMILES) |
| --- | --- |
| 5480 | COC[C@H](O)CNC1CCN(c2cc(C#N)cc(Nc3nc(NC4CC4)c4ncc(C#N)n4n3)c2Cl)CC1 [Example 145, 2-((2-chloro-5-cyano-3-(4-(((2R)-2-hydroxy-3-methoxypropyl)amino)-1-piperidinyl)phenyl)amino)-4-(cyclopropylamino)imidazo [2,1-f][1,2,4]triazine-7-carbonitrile] |
| 2590 | C[N+]1([O-])CCN(C2CN(c3cc(C#N)cc(Nc4nc(NC5CC5)c5ncc(C#N)n5n4)c3Cl)C2)CC1 [Example 169, 2-((2-chloro-5-cyano-3-(3-(4-methyl-4-oxido-1-piperazinyl)-1-azetidinyl)phenyl)amino)-4-(cyclopropylamino)imidazo [2,1-f][1,2,4]triazine-7-carbonitrile] |
| 1250 | COC(=O)N[C@@H]1CCN(c2cc(C#N)cc(Nc3nc(NC4CC4)c4ncc(C#N)n4n3)c2Cl)C[C@H]1OC(=O)C1(N)CC1 [Example 194, (3R,4R)-1-(2-chloro-5-cyano-3-((7-cyano-4-(cyclopropylamino)imidazo[2,1-f][1,2,4]triazin-2-yl)amino)phenyl)-4-((methoxycarbonyl)amino)-3-piperidinyl 1-aminocyclopropanecarboxylate] |
| 1060 | CS(=O)(=O)N[C@@H]1CCN(c2cc(C#N)cc(Nc3nc(NC4CC4)c4ncc(C#N)n4n3)c2Cl)C[C@H]1O [Example 175, N-((3R,4R)-1-(2-chloro-5-cyano-3-((7-cyano-4-(cyclopropylamino)imidazo[2,1-f][1,2,4]triazin-2-yl)amino)phenyl)-3-hydroxypiperidin-4-yl)methanesulfonamide] |
| 1010 | CN1C(C)(C)CC(NC2CCN(c3cc(C#N)cc(Nc4nc(NC5CC5)c5ncc(C#N)n5n4)c3Cl)CC2)CC1(C)C [Example 124, 2-((2-chloro-5-cyano-3-(4-((1,2,2,6,6-pentamethyl-4-piperidinyl)amino)-1-piperidinyl)phenyl)amino)-4-(cyclopropylamino)imidazo [2,1-f][1,2,4]triazine-7-carbonitrile] |
| 930 | C[N+]1(C)CCN(C2CN(c3cc(C#N)cc(Nc4nc(NC5CC5)c5ncc(C#N)n5n4)c3Cl)C2)CC1 [Example 170, 4-(1-(2-chloro-5-cyano-3-((7-cyano-4-(cyclopropylamino)imidazo [2,1-f][1,2,4]triazin-2-yl)amino)phenyl)-3-azetidinyl)-1,1-dimethylpiperazin-1-ium] |
| 800 | CC1(O)CCN(C2CN(c3cc(C#N)cc(Nc4nc(NC5CC5)c5ncc(C#N)n5n4)c3Cl)C2)CC1 [Example 157, 2-((2-chloro-5-cyano-3-(3-(4-hydroxy-4-methyl-1-piperidinyl)-1-azetidinyl)phenyl)amino)-4-(cyclopropylamino)imidazo [2,1-f][1,2,4]triazine-7-carbonitrile] |
| 680 | CC1(O)CN(C2CN(c3cc(C#N)cc(Nc4nc(NC5CC5)c5ncc(C#N)n5n4)c3Cl)C2)C1 [Example 168, 2-((2-chloro-5-cyano-3-(3-hydroxy-3-methyl-1,3′-biazetidin-1′-yl)phenyl)amino)-4-(cyclopropylamino)imidazo [2,1-f][1,2,4]triazine-7-carbonitrile] |
| 650 | COC(=O)N1CCN(C2CN(c3cc(C#N)cc(Nc4nc(NC5CC5)c5ncc(C#N)n5n4)c3Cl)C2)CC1 [Example 153, methyl 4-(1-(2-chloro-5-cyano-3-((7-cyano-4-(cyclopropylamino)imidazo [2,1-f][1,2,4]triazin-2-yl)amino)phenyl)-3-azetidinyl)-1-piperazinecarboxylate] |
| 530 | N#Cc1cc(Nc2nc(NC3CC3)c3ncc(C#N)n3n2)c(Cl)c(N2CC(N3CCOCC3)C2)c1 [Example 152, 2-((2-chloro-5-cyano-3-(3-(4-morpholinyl)-1-azetidinyl)phenyl)amino)-4-(cycloproplamino)imidazo [2,1-f][1,2,4]triazine-7-carbonitrile] |
| 500 | COC(=O)N[C@@H]1CCN(c2cc(C#N)cc(Nc3nc(NC4CC4)c4ncc(C#N)n4n3)c2Cl)C[C@H]1OC(=O)[C@H](C)N [Example 195, (3R,4R)-1-(2-chloro-5-cyano-3-((7-cyano-4-(cyclopropylamino)imidazo[2,1-f][1,2,4]triazin-2-yl)amino)phenyl)-4-((methoxycarbonyl)amino)-3-piperidinyl L-alaninate] |
| 420 | N#Cc1cc(Nc2nc(NC3CC3)c3ncc(C#N)n3n2)c(Cl)c(N2CC(N3CCNCC3)C2)c1 [Example 155, 2-((2-chloro-5-cyano-3-(3-(1-piperazinyl)-1-azetidinyl)phenyl)amino)-4-(cyclopropylamino)imidazo [2,1-f][1,2,4]triazine-7-carbonitrile] |
